Eight compounds from patent publication US9302999B2, “Substituted triazoles as herbicides” (E. I. DU PONT DE NEMOURS AND COMPANY, priority 2012, dated 2016) can be followed below.

The subject of test [1] is Barnyardgrass. The test can be described thus: Test C postemergence: barnyardgrass. Type of test: in vivo, Echinochloa crus-galli. The procedure, abridged: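 Seedlings are raised in pots of peat-based medium to 2–18 cm (1- to 4-leaf stage). The formulated compound is then applied postemergence. Plants stay in the greenhouse for 13 to 15 days and are rated visually against controls, where 0 means no effect and 100 complete control.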

The subject of test [2] is Barnyardgrass. The test can be described thus: Test C postemergence: barnyardgrass. It is filed as in vivo, Echinochloa crus-galli. The conditions noted are these: 125 g ai/ha, scale 0 to 100, 0 no effect, 100 complete control. An excerpt:
(§1) Seeds of plant species selected from blackgrass (Alopecurus myosuroides), bromegrass, downy (downy bromegrass, Bromus tectorum), foxtail, green (green foxtail, Setaria viridis), ryegrass, Italian (Italian ryegrass, Lolium multiflorum), winter wheat (Triticum aestivum), wild oat (Avena fatua), galium (catchweed bedstraw, Galium aparine), bermudagrass (Cynodon dactylon), surinam grass (Brachiaria decumbens), cocklebur (common cocklebur, Xanthium strumarium), corn (Zea mays), large crabgrass (Digitaria sanguinalis), woolly cupgrass (Eriochloa villosa), foxtail, giant (giant foxtail, Setaria faberii), goosegrass (Eleusine indica), johnsongrass (Sorghum halepense), kochia (Kochia scoparia), lambsquarters (Chenopodium album), morningglory (Ipomoea coccinea), nightshade (eastern black nightshade, Solanum ptycanthum), nutsedge, yellow (yellow nutsedge, Cyperus esculentus), pigweed (Amaranthus retroflexus), ragweed (common ragweed, Ambrosia elation), soybean (Glycine max), common (oilseed) sunflower (Helianthus annuus), Russian thistle (Salsola kali) and velvetleaf (Abutilon theophrasti) were planted into a blend of loam soil and sand and treated preemergence with test chemicals formulated in a non-phytotoxic solvent mixture which included a surfactant.
(§2) At the same time, plants selected from these crop and weed species and also barley (winter barley, Hordeum vulgare), canarygrass (Phalaris minor), chickweed (common chickweed, Stellaria media) windgrass (Apera spica-venti) and deadnettle (henbit deadnettle, Lamium amplexicaule) were planted in pots containing Redi-Earth® planting medium (Scotts Company, 14111 Scottslawn Road, Marysville, Ohio 43041) comprising spaghnum peat moss, vermiculite, wetting agent and starter nutrients and treated with postemergence applications of test chemicals formulated in the same manner. Plants ranged in height from 2 to 18 cm (1- to 4-leaf stage) for postemergence treatments.
(§3) Treated plants and controls were maintained in a greenhouse for 13 to 15 days, after which time all species were compared to controls and visually evaluated. Plant response ratings, summarized in Table C, are based on a scale of 0 to 100 where 0 is no effect and 100 is complete control. A dash (-) response means no test result.

Test [3] relates to Oilseed Rape. Put plainly: Test C postemergence: oilseed rape. It is filed as in vivo, Brassica napus.
Test [4] has as its system Waterhemp. The test can be described thus: Test C postemergence: waterhemp. Type of test: in vivo, Amaranthus rudis.
Excerpt: as §1, §2, §3

Test [5] relates to barnyardgrass (Echinochloa crus-galli). Put plainly: Test C pre-/postemergence: barnyardgrass. Type of test: in vivo. The conditions noted are these: scale 0 to 100, 0 no effect, 100 complete control.
Test [6] deals with Barnyardgrass. Put plainly: Test C preemergence: barnyardgrass. Type of test: in vivo, Echinochloa crus-galli.
The subject of test [7] is Oilseed Rape. The test can be described thus: Test C pre-/postemergence: oilseed rape. Type of test: in vivo.
Excerpt: as §1, §2, §3

The test system of test [8] is Oilseed Rape. Put plainly: Test C preemergence: oilseed rape. It is filed as in vivo. The conditions noted are these: scale of 0 to 100, 0 is no effect, 100 is complete control.
The test system of test [9] is Waterhemp. Put plainly: Test C pre-/postemergence: waterhemp. It is filed as in vivo.
Where [10] appears, read: 31 g ai/ha, scale 0 to 100 (0 no effect, 100 complete control).
Setting [11] is: 62 g ai/ha, scale 0 to 100 (0 no effect, 100 complete control).
The mark [12] stands for this setting: 125 g ai/ha, scale 0 to 100, 0 no effect, 100 complete control.
Setting [13] is: 31 g ai/ha, scale of 0 to 100, 0 is no effect, 100 is complete control.
The mark [14] stands for this setting: 62 g ai/ha, scale of 0 to 100, 0 is no effect, 100 is complete control.
The mark [15] stands for this setting: Preemergence, 250 g ai/ha, scale 0 to 100, 0 no effect, 100 complete control.
Where [16] appears, read: 250 g ai/ha, scale 0 to 100 (0 no effect, 100 complete control).
[17] abbreviates: 31 g ai/ha, scale 0 (no effect) to 100 (complete control).
The mark [18] stands for this setting: Postemergence, 31 g ai/ha, scale 0 to 100 (0 no effect, 100 complete control).
Setting [19] is: Postemergence, 16 g ai/ha, scale 0 to 100, 0 no effect, 100 complete control.

Take `Cc1nn(-c2ccc(F)c(C(F)(F)F)c2)nc1Cc1ccnc(C(F)(F)F)c1` [Compound 156]: the “Plant response rating, Barnyardgrass” value in the test with Barnyardgrass [1] (setting [10]) is reported as 20; in the test on Barnyardgrass [1] (setting [11]), 30; with Barnyardgrass [1] (250 g ai/ha, scale 0 to 100), 55; in the test with Barnyardgrass [2] it was 40; in test [5] (Preemergence, 250 g ai/ha), 100; in the test with Barnyardgrass [6] (setting [13]), 85. For the same compound, the “Plant response rating, Barnyardgrass” value in the test with Barnyardgrass [6] (setting [14]) and in the test on Barnyardgrass [6] (setting [12]) was 90 each time. Also, the “Plant response rating, Oilseed Rape” value is 95 in the test with Oilseed Rape [3] (setting [12]), 98 in the test with Oilseed Rape [7] (setting [15]), 10 in the test with Oilseed Rape [8] (31 g ai/ha) and 60 in the test on Oilseed Rape [8] (62 g ai/ha). The results for the “Plant response rating, Waterhemp” value with Waterhemp [4] (setting [12]) and in the test on Waterhemp [9] (setting [15]) were 98 and 100, respectively.

Regarding `CCc1nn(-c2ccc(C(F)(F)F)cc2)nc1Oc1ccnc(C(F)(F)F)c1` [Compound 169], the “Plant response rating, Barnyardgrass” value in the test on Barnyardgrass [1] (setting [10]) is listed as 15; with Barnyardgrass [1] (setting [11]) it was 25; in the test on Barnyardgrass [1] (250 g ai/ha, scale 0 to 100) it was 85; in the test on Barnyardgrass [2] it was 75; in test [5] (Preemergence, 250 g ai/ha), 100; in the test on Barnyardgrass [6] (setting [17]), 40. Further, the “Plant response rating, Barnyardgrass” value stood at 80 with Barnyardgrass [6] (setting [14]) and 98 with Barnyardgrass [6] (setting [12]). Besides, the “Plant response rating, Oilseed Rape” value is recorded as 40 in the test on Oilseed Rape [3] (setting [12]); 60 with Oilseed Rape [3] (setting [16]); 30 in the test with Oilseed Rape [7] (setting [18]); 100 in the test on Oilseed Rape [7] (setting [15]); 98 with Oilseed Rape [8] (62 g ai/ha). The “Plant response rating, Waterhemp” value is listed as 80 in the test on Waterhemp [4] (setting [12]), 95 in the test on Waterhemp [4] (setting [16]) and 75 with Waterhemp [9] (setting [18]).

For `CCCc1nn(-c2ccc(F)cc2)nc1Oc1ccnc(C(F)(F)F)c1` [Compound 168], the “Plant response rating, Barnyardgrass” value in the test with Barnyardgrass [1] (setting [10]) is on record as 40; in the test with Barnyardgrass [1] (setting [11]), 75; with Barnyardgrass [1] (250 g ai/ha, scale 0 to 100), 95; in the test on Barnyardgrass [2], 90; in [5] (Preemergence, 250 g ai/ha), 100; in the test with Barnyardgrass [6] (setting [17]) it was 75. Moreover, the “Plant response rating, Barnyardgrass” value in the test with Barnyardgrass [6] (setting [14]) and with Barnyardgrass [6] (setting [12]) was 100 throughout. For the same compound, the “Plant response rating, Oilseed Rape” value came out at 90 in the test with Oilseed Rape [3] (setting [12]); 95 with Oilseed Rape [3] (setting [16]); 40 in the test on Oilseed Rape [7] (setting [18]); 100 in the test with Oilseed Rape [7] (setting [15]); 100 in the test with Oilseed Rape [8] (62 g ai/ha). Further, the “Plant response rating, Waterhemp” value in the test with Waterhemp [4] (setting [12]) was 95; in the test on Waterhemp [4] (setting [16]), 95; in the test with Waterhemp [9] (setting [18]), 80.

`CCc1nn(-c2ccc(C(F)(F)F)c(F)c2)nc1Oc1ccnc(C(F)(F)F)c1` [Compound 183]: the “Plant response rating, Barnyardgrass” value worked out at 15 with Barnyardgrass [1] (setting [10]); 35 in the test with Barnyardgrass [1] (setting [11]); 85 with Barnyardgrass [1] (250 g ai/ha, scale 0 to 100); 80 in the test on Barnyardgrass [2]; 100 in test [5] (Preemergence, 250 g ai/ha); 40 in the test on Barnyardgrass [6] (setting [17]). Further, the figures for the “Plant response rating, Barnyardgrass” value in the test with Barnyardgrass [6] (setting [14]) and in the test with Barnyardgrass [6] (setting [12]) were 95 and 100, respectively. Besides, the “Plant response rating, Oilseed Rape” value in the test with Oilseed Rape [3] (setting [12]) is recorded as 25; in the test on Oilseed Rape [3] (setting [16]), 50; in the test on Oilseed Rape [7] (setting [18]), 20; with Oilseed Rape [7] (setting [15]), 100; in the test on Oilseed Rape [8] (62 g ai/ha), 80. Further, the entries for the “Plant response rating, Waterhemp” value in the test on Waterhemp [4] (setting [12]), in the test on Waterhemp [4] (setting [16]) and in the test on Waterhemp [9] (setting [18]) were 100, 100 and 85, respectively.

As for `CCc1nn(-c2ccc(F)cc2)nc1Cc1ccnc(C(F)(F)F)c1` [Compound 154], the “Plant response rating, Barnyardgrass” value is 15 with Barnyardgrass [1] (setting [10]); 25 in the test on Barnyardgrass [1] (setting [11]); 40 in the test on Barnyardgrass [1] (250 g ai/ha, scale 0 to 100); 25 in the test on Barnyardgrass [2]; 100 in test [5] (Preemergence, 250 g ai/ha); 45 in the test with Barnyardgrass [6] (setting [13]). Also, the “Plant response rating, Barnyardgrass” value with Barnyardgrass [6] (setting [14]) and in the test with Barnyardgrass [6] (setting [12]) was 90 throughout. Also, the “Plant response rating, Oilseed Rape” value in the test with Oilseed Rape [3] (setting [12]) stood at 95; in the test with Oilseed Rape [7] (setting [15]) it was 100; with Oilseed Rape [8] (31 g ai/ha), 5; in the test on Oilseed Rape [8] (62 g ai/ha), 90. The “Plant response rating, Waterhemp” value in the test on Waterhemp [4] (setting [12]) turned out to be 98; in the test on Waterhemp [9] (setting [15]), 100.

For the compound `CCCc1nn(-c2ccc(C(F)(F)F)cc2)nc1Oc1ccnc(C(F)(F)F)c1` [Compound 170], the “Plant response rating, Barnyardgrass” value in the test on Barnyardgrass [1] (setting [10]) was 20; in the test on Barnyardgrass [1] (setting [11]), 55; with Barnyardgrass [1] (250 g ai/ha, scale 0 to 100), 95; with Barnyardgrass [2], 85; in test [5] (Preemergence, 250 g ai/ha), 100; with Barnyardgrass [6] (setting [17]), 80. Moreover, the “Plant response rating, Barnyardgrass” value was 98 in the test on Barnyardgrass [6] (setting [14]) and 100 with Barnyardgrass [6] (setting [12]). Also, the “Plant response rating, Oilseed Rape” value came out at 50 in the test with Oilseed Rape [3] (setting [12]); 85 in the test with Oilseed Rape [3] (setting [16]); 30 in the test with Oilseed Rape [7] (setting [18]); 100 in the test with Oilseed Rape [7] (setting [15]); 95 in the test with Oilseed Rape [8] (62 g ai/ha). Further, the “Plant response rating, Waterhemp” value came to 98 in the test with Waterhemp [4] (setting [12]), 100 in the test on Waterhemp [4] (setting [16]) and 85 with Waterhemp [9] (setting [18]).

As for `CCOc1nn(-c2ccc(Cl)cc2)nc1Cc1ccnc(C(F)(F)F)c1` [Compound 188], the “Plant response rating, Barnyardgrass” value with Barnyardgrass [1] (setting [10]) worked out at 75; in the test on Barnyardgrass [1] (setting [11]), 95; in the test with Barnyardgrass [1] (250 g ai/ha, scale 0 to 100), 100; with Barnyardgrass [2] it was 98; in [5] (Preemergence, 250 g ai/ha) it was 100; in the test on Barnyardgrass [6] (setting [17]), 80. The “Plant response rating, Barnyardgrass” value in the test on Barnyardgrass [6] (setting [14]) and in the test with Barnyardgrass [6] (setting [12]) was 100 throughout. Also, the “Plant response rating, Oilseed Rape” value in the test with Oilseed Rape [3] (setting [12]) is recorded as 90; with Oilseed Rape [3] (setting [16]) it was 95; in the test on Oilseed Rape [7] (setting [18]), 40; with Oilseed Rape [7] (setting [15]) it was 100; in the test with Oilseed Rape [8] (62 g ai/ha) it was 70. The results for the “Plant response rating, Waterhemp” value in the test with Waterhemp [4] (setting [12]), in the test on Waterhemp [4] (setting [16]) and in the test with Waterhemp [9] (setting [18]) were 100, 100 and 70, respectively.

`FCc1nn(-c2ccc(F)cc2)nc1Oc1ccnc(C(F)(F)F)c1` [Compound 160]: the “Plant response rating, Barnyardgrass” value in the test on Barnyardgrass [1] (setting [10]) is given as 20; with Barnyardgrass [1] (setting [11]), 30; in the test with Barnyardgrass [2], 35; in test [5] (Postemergence, 16 g ai/ha), 15; in the test on Barnyardgrass [6] (16 g ai/ha, scale 0 (no effect) to 100 (complete control)), 5; in the test on Barnyardgrass [6] (setting [13]), 35. Also, the “Plant response rating, Barnyardgrass” value with Barnyardgrass [6] (setting [14]) worked out at 90; in the test with Barnyardgrass [6] (setting [12]) it was 100. For the same compound, the “Plant response rating, Oilseed Rape” value in the test on Oilseed Rape [3] (setting [12]) is 95; with Oilseed Rape [7] (setting [19]), 85; in the test with Oilseed Rape [8] (31 g ai/ha) it was 5; with Oilseed Rape [8] (62 g ai/ha), 80. The results for the “Plant response rating, Waterhemp” value in the test on Waterhemp [4] (setting [12]) and in the test with Waterhemp [9] (setting [19]) were 98 and 95, respectively.
